Patent US20260034123A1 (Cedilla Therapeutics, Inc., priority 2022, published 2026)

Experiments:
CDK2/Cyclin E1 = CDK2/Cyclin E1 (Homo sapiens, UniProt P24941); assay: Caliper LabChip EZ Reader mobility shift assay; format: biochemical; settings: 2.5 nM CDK2/Cyclin E1(14-475), 100 μM ATP, 30 min preincubation; read-out: Caliper Assay (CDK2/CCNE1): IC50
Protocol: Inhibition of CDK2/Cyclin E1 activity in the presence of compounds of the present disclosure was evaluated using a Caliper LabChip® EZ Reader mobility shift assay. In the assay, activated CDK2/Cyclin E1 catalyzes the phosphorylation of a fluorescently tagged peptide 5-FAM-QSPKKG-CONH2 (PerkinElmer, FL Peptide 18) which induces a difference in capillary electrophoresis mobility. The peptide substrate and product were measured, and the conversion ratio was used to determine the inhibition (as % activity and IC50 values) of CDK2/Cyclin E1. Reactions contained 50 mM HEPES pH 7.5, 10 mM MgCl2, 1 mM EDTA, 2 mM DTT, 0.01% Brij35, 0.5 mg/mL BSA, 0.1% DMSO, 2.5 nM CDK2/Cyclin E1(14-475), 100 μM ATP, and 1.5 μM fluorescent peptide substrate.
Dose titrations of inhibitors in 100% DMSO were combined with 3.25 nM CDK2/Cyclin E1(14-475) and 130 μM of ATP in reaction buffer. The mixtures were incubated for 30 minutes before the addition of fluorescent peptide substrate to initiate the kinase reaction. The final conditions were 2.5 nM CDK2/Cyclin E1(14-475), 100 μM ATP, and 1.5 μM fluorescent peptide. The reactions were stopped after 100 minutes with the addition of EDTA (6 mM final EDTA concentration). The stopped reactions were analyzed on a Caliper LabChip® EZ Reader 11. The conversion ratios were normalized to yield % activity, plotted against compound concentration, and fit to a four-parameter equation to determine the IC50 for each compound.

Kuramochi cells RB-WT = assay: IncuCyte Kuramochi cell proliferation assay, RB-WT; format: cell-based; settings: 72 hours, cell count
Summary of the method: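 GI50 was derived by curve-fitting DMSO-normalized fold change in nuclear count between 0 and 72 h. Counts came from images of Kuramochi cells carrying mApple-H2B. Compounds were dosed over 10 points at 1/2-log spacing from a 20 µM top concentration.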

Row | Structure (SMILES) | IC50 (CDK2/Cyclin E1) [µM] | IC50 (Kuramochi cells RB-WT) [µM]
1 | CC(OC[C@@H]1CN(C(=O)c2cncs2)CC12CN(C(=O)[C@H]1CC1(C)C)C2)c1cccc(C2CCOCC2)n1 (stereo partly drawn) [Compound I-14, ((S)-2-((S)-2,2-dimethylcyclopropane-1-carbonyl)-8-((1-(6-(tetrahydro-2H-pyran-4-yl)pyridin-2-yl)ethoxy)methyl)-2,6-diazaspiro[3.4]octan-6-yl)(thiazol-5-yl)methanone] | 1 to 10 | > 10
2 | CC(C)(C)CN1CC2(C1)CN(C(=O)c1cncs1)C[C@H]2COCc1cccc(-c2ccc(C(F)(F)F)cc2)n1 [Compound I-16, (S)-(2-neopentyl-8-(((6-(4-(trifluoromethyl)phenyl)pyridin-2-yl)methoxy)methyl)-2,6-diazaspiro[3.4]octan-6-yl)(thiazol-5-yl)methanone] | > 10 | 5 to 10
3 | CC1(C)C[C@@H]1C(=O)N1CC2(CN(Cc3cnccn3)C[C@H]2COCc2cccc(-c3ccc(C(F)(F)F)cc3)n2)C1 [Compound I-19, ((S)-2,2-dimethylcyclopropyl)((S)-6-(pyrazin-2-ylmethyl)-8-(((6-(4-(trifluoromethyl)phenyl)pyridin-2-yl)methoxy)methyl)-2,6-diazaspiro[3.4]octan-2-yl) methanone] | > 10 | > 10
4 | CC1(C)C[C@@H]1C(=O)N1CC2(CN(C(=O)c3cncs3)C[C@H]2COCc2cccc(-c3ccc(C(F)(F)F)nc3)n2)C1 [Compound I-21, ((S)-2-((S)-2,2-dimethylcyclopropane-1-carbonyl)-8-(((6′-(trifluoromethyl)-[2,3′-bipyridin]-6-yl)methoxy)methyl)-2,6-diazaspiro[3.4]octan-6-yl)(thiazol-5-yl)methanone] | 0.1 to 1 | > 10
5 | CC1(C)C[C@@H]1C(=O)N1CC2(CN(C(=O)c3cncs3)C[C@H]2COc2cccc3c(C4CCOCC4)cccc23)C1 [Compound I-22, ((S)-2-((S)-2,2-dimethylcyclopropane-1-carbonyl)-8-(((5-(tetrahydro-2H-pyran-4-yl)naphthalen-1-yl)oxy)methyl)-2,6-diazaspiro[3.4]octan-6-yl)(thiazol-5-yl)methanone] | 0.1 to 1 | > 10
6 | CC1(C)C[C@@H]1C(=O)N1CC2(CN(C(=O)c3cncs3)C[C@H]2COc2cncc3c(C4CCOCC4)cccc23)C1 [Compound I-23, ((S)-2-((S)-2,2-dimethylcyclopropanecarbonyl)-8-(((8-(tetrahydro-2H-pyran-4-yl)isoquinolin-4-yl)oxy)methyl)-2,6-diazaspiro[3.4]octan-6-yl)(thiazol-5-yl)methanone] | 1 to 10 | > 10
7 | CC1(C)C[C@@H]1C(=O)N1CC2(CN(C(=O)c3cncs3)C[C@H]2COCc2cccc(C3CCC(OC(F)(F)F)CC3)n2)C1 (stereo partly drawn) [Compound I-24, ((S)-2-((S)-2,2-dimethylcyclopropane-1-carbonyl)-8-(((6-(4-(trifluoromethoxy)cyclohexyl)pyridin-2-yl)methoxy)methyl)-2,6-diazaspiro[3.4]octan-6-yl)(thiazol-5-yl) methanone] | 0.01 to 0.1 | 5 to 10
8 | CC1(C)C[C@@H]1C(=O)N1CC2(CN(C(=O)c3cncs3)C[C@H]2COCc2cc3ccccc3c(C3CCOCC3)n2)C1 [Compound I-28, ((S)-2-((S)-2,2-dimethylcyclopropane-1-carbonyl)-8-(((1-(tetrahydro-2H-pyran-4-yl)isoquinolin-3-yl)methoxy)methyl)-2,6-diazaspiro[3.4]octan-6-yl)(thiazol-5-yl)methanone] | 0.1 to 1 | > 10
9 | CC1(C)C[C@@H]1C(=O)N1CC2(CN(C(=O)c3cncs3)C[C@H]2COCc2ccn[nH]2)C1 [Compound I-29, ((S)-8-(((1H-pyrazol-5-yl)methoxy)methyl)-2-((S)-2,2-dimethylcyclopropanecarbonyl)-2,6-diazaspiro[3.4]octan-6-yl)(thiazol-5-yl)methanone] | > 10 | > 10
10 | CC1(C)C[C@@H]1C(=O)N1CC2(CN(C(=O)c3cncs3)C[C@H]2COc2cccc3ccc(C4CCOCC4)nc23)C1 [Compound I-30, ((S)-2-((S)-2,2-dimethylcyclopropanecarbonyl)-8-(((2-(tetrahydro-2H-pyran-4-yl)quinolin-8-yl)oxy)methyl)-2,6-diazaspiro[3.4]octan-6-yl)(thiazol-5-yl)methanone] | 1 to 10 | > 10

Further lines, with some results ahead:

Row | IC50 (CDK2/Cyclin E1) [µM] | Structure (SMILES) | IC50 (Kuramochi cells RB-WT) [µM]
11 | 0.1 to 1 | CC1(C)C[C@@H]1C(=O)N1CC2(CN(C(=O)c3cncs3)C[C@H]2COC(COC2CCC(F)(F)CC2)c2cccc(C3CCOCC3)n2)C1 (stereo partly drawn) [Compound I-13, ((8S)-8-((2-((4,4-difluorocyclohexyl)oxy)-1-(6-(tetrahydro-2H-pyran-4-yl)pyridin-2-yl)ethoxy)methyl)-2-((S)-2,2-dimethylcyclopropane-1-carbonyl)-2,6-diazaspiro[3.4]octan-6-yl)(thiazol-5-yl)methanone] | > 10
12 | > 10 | O=C(c1cncs1)N1C[C@@H](COCc2cccc(-c3ccc(C(F)(F)F)cc3)n2)C2(CN(CC3COC3)C2)C1 [Compound I-15, (S)-(2-(oxetan-3-ylmethyl)-8-(((6-(4-(trifluoromethyl)phenyl)pyridin-2-yl)methoxy)methyl)-2,6-diazaspiro[3.4]octan-6-yl)(thiazol-5-yl)methanone] | > 10
13 | > 10 | CC(C)(C)CN1CC2(C1)CN(C(=O)c1cnccn1)C[C@H]2COCc1cccc(-c2ccc(C(F)(F)F)cc2)n1 [Compound I-17, (S)-(2-neopentyl-8-(((6-(4-(trifluoromethyl)phenyl)pyridin-2-yl)methoxy)methyl)-2,6-diazaspiro[3.4]octan-6-yl)(pyrazin-2-yl)methanone] | > 10
14 | 0.01 to 0.1 | CC1(C)C[C@@H]1C(=O)N1CC2(CN(C(=O)c3cnccn3)C[C@H]2COCc2cccc(-c3ccc(C(F)(F)F)cc3)n2)C1 [Compound I-18, ((S)-2-((S)-2,2-dimethylcyclopropane-1-carbonyl)-8-(((6-(4-(trifluoromethyl)phenyl)pyridin-2-yl)methoxy)methyl)-2,6-diazaspiro[3.4]octan-6-yl) (pyrazin-2-yl)methanone] | > 10
15 | 0.1 to 1 | CC1(C)C[C@@H]1C(=O)N1CC2(CN(C(=O)c3cncs3)C[C@H]2COCc2cccc(-c3cccnc3)n2)C1 [Compound I-20, ((S)-8-(([2,3′-bipyridin]-6-ylmethoxy)methyl)-2-((S)-2,2-dimethylcyclopropane-1-carbonyl)-2,6-diazaspiro[3.4]octan-6-yl)(thiazol-5-yl)methanone] | > 10
16 | 0.1 to 1 | CC1(C)C[C@@H]1C(=O)N1CC2(CN(C(=O)c3cncs3)C[C@H]2COc2nccc3c(C4CCOCC4)cccc23)C1 [Compound I-25, ((S)-2-((S)-2,2-dimethylcyclopropanecarbonyl)-8-(((5-(tetrahydro-2H-pyran-4-yl)isoquinolin-1-yl)oxy)methyl)-2,6-diazaspiro[3.4]octan-6-yl)(thiazol-5-yl)methanone] | > 10
17 | > 10 | CN(Cc1cccc(C2CCOCC2)n1)C[C@@H]1CN(C(=O)c2cncs2)CC12CN(C(=O)[C@H]1CC1(C)C)C2 [Compound I-26, (2-((S)-2,2-dimethylcyclopropanecarbonyl)-8-((methyl((6-(tetrahydro-2H-pyran-4-yl)pyridin-2-yl)methyl)amino)methyl)-2,6-diazaspiro[3.4]octan-6-yl)(thiazol-5-yl) methanone] | > 10
